According to the supplement of paper PMC8633005:

Key:
Experiment in all cases: drug sensitivity score (DSS) (DSS (unitless, 0-50 scale)); higher = more sensitive (stronger viability inhibition); extreme values may be limits of the assay
Conditions in all cases: 72 h; culture: 2D
[1] = system: Bowes
In short: (§1)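 Patient-derived melanoma cultures and melanoma cell lines were grown in 2D in 384-well plates with a 527-compound oncology library at five concentrations spanning a 10,000-fold range, with 1000–1500 cells per well for the cultures. CellTiter-Glo luminescence gave viability after 72 h at 37 °C. The drug sensitivity score is a modified area-under-curve measure derived from dose-response curves fitted in the in-house Breeze software.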

[2] = system: FM-MEL-2
In short: as §1

[3] = system: FM-MEL-3
In short: as §1

[4] = system: FM-MEL-6
In short: as §1

[5] = system: SK-MEL-28
In short: as §1

[6] = system: SK-MEL-2
In short: as §1

[7] = system: WM165
In short: as §1

[8] = system: WM852
In short: as §1

Row | SMILES | drug sensitivity score [1] | drug sensitivity score [2] | drug sensitivity score [3] | drug sensitivity score [4] | drug sensitivity score [5] | drug sensitivity score [6] | drug sensitivity score [7] | drug sensitivity score [8]
1 | Nc1cc(COc2c(Cl)cc(C[C@H](N)C(=O)O)cc2Cl)c2oc(-c3ccccc3)nc2c1 [JPH203] | 0 | 0 | 0 | 0.6 | 0 | 0 | 0 | 0
2 | CC(C)(O)CNc1nc(Nc2ccnc(C(F)(F)F)c2)nc(-c2cccc(C(F)(F)F)n2)n1 [Enasidenib] | 0 | 3.1 | 0 | 0 | 0 | 1.9 | 0 | 0
3 | CCc1nc(C(N)=O)c(Nc2ccc(N3CCC(N4CCN(C)CC4)CC3)c(OC)c2)nc1NC1CCOCC1 [Gilteritinib] | 0 | 3.7 | 5 | 1.9 | 2.7 | 1.7 | 2.8 | 1.8
4 | Cc1c(-c2ccc(N3CCc4cccc(C(=O)Nc5nc6ccccc6s5)c4C3)nc2C(=O)O)cnn1CC12CC3CC(CC(C3)C1)C2 | 0 | 1.5 | 6.7 | 0 | 0 | 0 | 0 | 0
5 | Nc1nc(N)c2nc(-c3cccc(O)c3)c(-c3cccc(O)c3)nc2n1 [TG100-115] | 2.9 | 1.8 | 0 | 1 | 0 | 0 | 0 | 0
6 | O=C(Nc1c[nH]nc1-c1nc2ccc(CN3CCOCC3)cc2[nH]1)NC1CC1 [AT9283] | 8 | 0 | 0 | 0 | 2.9 | 2.3 | 8 | 2.9
7 | Nc1nc(F)nc2c1ncn2[C@@H]1O[C@H](CO)[C@@H](O)[C@@H]1O [Fludarabine] | 0 | 1.4 | 0.6 | 3.1 | 1.1 | 4.7 | 0 | 0
8 | CC(C)c1c(C(=O)Nc2ccccc2)c(-c2ccccc2)c(-c2ccc(F)cc2)n1CC[C@@H](O)C[C@@H](O)CC(=O)O [Atorvastatin] | 5.8 | 0 | 1.5 | 0 | 1 | 1.1 | 7.6 | 4.4
9 | Cc1cc(Nc2ncc(Cl)c(Nc3ccccc3S(=O)(=O)C(C)C)n2)c(OC(C)C)cc1C1CCNCC1 [Ceritinib] | 0.3 | 4.3 | 4.3 | 2.6 | 1.5 | 0 | 4.5 | 1
10 | CCn1c(=O)c(-c2ccc(Cl)cc2Cl)cc2cnc(Nc3ccc(N4CCNCC4)c(F)c3)nc21 [FRAX486] | 9.7 | 0 | 0 | 1.9 | 3.2 | 0.5 | 7.6 | 1.4
11 | CCNCCS(=O)(=O)NC[C@@]1(c2ccccc2)SC(NC(=O)C(C)(C)C)=NN1C(=O)C(C)(C)C [Litronesib] | 18.8 | 2.4 | 8.6 | 10.2 | 2.2 | 13.1 | 18.9 | 23.7
12 | CCC(C)n1ncn(-c2ccc(N3CCN(c4ccc(OCC5COC(Cn6cncn6)(c6ccc(Cl)cc6Cl)O5)cc4)CC3)cc2)c1=O (centres undefined) [Itraconazole] | 4.7 | 1.4 | 2.8 | 0 | 0 | 0 | 0 | 0.9
13 | N#CC1(c2ccc(NC(=O)c3cccnc3NCc3ccncc3)cc2)CCCC1 [Apatinib] | 0 | 0.1 | 0 | 0 | 0 | 0 | 0 | 0
14 | C[C@]1(c2nc3c(C(N)=O)cccc3[nH]2)CCCN1 [Veliparib] | 0 | 0.7 | 0.6 | 0 | 0.2 | 0 | 0.9 | 0
15 | COc1ccc(-c2nc(N3CCOCC3)c3sc(CN(C)c4ncc(C(=O)NO)cn4)cc3n2)cn1 [CUDC-907] | 22.5 | 33.1 | 36.9 | 32.8 | 28 | 33.1 | 38.5 | 20.8
16 | C[C@H]1CNCCCN1S(=O)(=O)c1cccc2cncc(F)c12 [Ripasudil] | 0 | 0 | 0 | 0 | 0 | 0 | 0.1 | 0
17 | Cc1c(Cn2c(C)nc3c(C(=O)O)cc(N4CCOCC4)cc32)cccc1C(F)(F)F | 0 | 0 | 0 | 0 | 0.3 | 0 | 0 | 0
18 | C=CC(=O)N1CC/C(=C\c2ccc(F)c([N+](=O)[O-])c2)C(=O)/C(=C/c2ccc(F)c([N+](=O)[O-])c2)C1 [VLX1570] | 23.8 | 7.8 | 18.6 | 2.4 | 15.8 | 14.9 | 24 | 18.8
19 | CC(=O)Nc1ccc(C(=O)Nc2ccccc2N)cc1 [Tacedinaline] | 0 | 1.6 | 2.7 | 1.7 | 0 | 0 | 0 | 1.5
20 | CN(C(=O)c1ccc(F)cc1C(F)(F)F)C1CCN(c2nnc(-c3ccnn3C)c3ccccc23)CC1 [Taladegib] | 0 | 0.4 | 0 | 0 | 0 | 0 | 0 | 0
21 | O=S(=O)(c1cccc2c(O)nccc12)N1CCCNCC1 [Hydroxyfasudil] | 0 | 0 | 0 | 1.8 | 0 | 0 | 0 | 0
22 | CC(=O)[C@]1(O)Cc2c(O)c3c(c(O)c2[C@@H](O[C@H]2C[C@H](N)[C@H](O)[C@H](C)O2)C1)C(=O)c1ccccc1C3=O [Idarubicin] | 5.4 | 8.4 | 10.9 | 8.1 | 8.4 | 9.7 | 15.4 | 4.8

Row | SMILES | drug sensitivity score [1] | drug sensitivity score [2] | drug sensitivity score [3] | drug sensitivity score [4] | drug sensitivity score [5] | drug sensitivity score [6] | drug sensitivity score [7] | drug sensitivity score [8]
23 | C[C@H](Nc1ncnc2[nH]cnc12)c1cc2ccc(F)cc2nc1-c1ccccn1 [AMG319] | 0 | 1.7 | 0 | 0.6 | 0 | 0 | 0 | 0
24 | CCn1c(-c2nonc2N)nc2c(C#CC(C)(C)O)ncc(OC[C@H]3CCCNC3)c21 | 1 | 1 | 1.8 | 0 | 0 | 0 | 3.4 | 0
25 | CN(C)C[C@@H]1CCn2cc(c3ccccc32)C2=C(C(=O)NC2=O)c2cn(c3ccccc23)CCO1 [Ruboxistaurin] | 4.5 | 7.2 | 6.5 | 7.6 | 9 | 4.7 | 8.6 | 6.7
26 | Cc1ccc(C(=O)N(CCCN)[C@@H](c2oc3cc(Cl)ccc3c(=O)c2Cc2ccccc2)C(C)C)cc1 | 7.7 | 3.9 | 2.1 | 5.4 | 0.9 | 10 | 4.3 | 4.5
27 | CCOC(=O)CCNc1cc(N2CCc3ccccc3CC2)nc(-c2ccccn2)n1 [GSK-J4] | 11.2 | 1 | 20.9 | 1.3 | 0 | 0 | 3.2 | 2.3
28 | O=C(/C=C/c1cccnc1)NCCCCC1CCN(C(=O)c2ccccc2)CC1 [Daporinad] | 32.7 | 16.6 | 14.5 | 10.3 | 16.8 | 11.3 | 17.5 | 27.1
29 | Cc1nc(=O)c2cc(CN(C)c3ccc(C(=O)N[C@@H](CCC(=O)O)C(=O)O)s3)ccc2[nH]1 [Raltitrexed] | 23.9 | 0 | 0 | 0 | 3.9 | 0 | 8.4 | 0
30 | CO[C@@]12[C@H](COC(N)=O)C3=C(C(=O)C(C)=C(N)C3=O)N1C[C@@H]1N[C@@H]12 [Mitomycin C] | 3.1 | 0.2 | 3.5 | 0.8 | 1.9 | 2 | 6.2 | 0
31 | CNC(=O)c1ccc(-c2cnc3ncc(Cc4ccc5ncccc5c4)n3n2)cc1F [Capmatinib] | 0 | 0 | 0 | 0 | 0 | 0 | 0 | 0
32 | O=C(Nc1cc(Cl)cc2c1[nH]c1cnccc12)c1cccnc1 [PS-1145] | 0 | 0 | 0.7 | 0 | 0 | 0 | 0 | 1.3
33 | O=c1[nH]c(=O)n([C@H]2C[C@H](O)[C@@H](CO)O2)cc1C(F)(F)F [Trifluridine] | 0 | 0 | 0.1 | 0.8 | 2.7 | 0 | 3.5 | 0
34 | COC(=O)c1ccc2c(c1)NC(=O)/C2=C(\Nc1ccc(N(C)C(=O)CN2CCN(C)CC2)cc1)c1ccccc1 [Nintedanib] | 6.5 | 1.5 | 1.8 | 5.6 | 2.1 | 0 | 0 | 5.3
35 | NC(=O)Nc1cc(-c2cccc(F)c2)sc1C(=O)N[C@H]1CCCNC1 [AZD7762] | 7.7 | 0.2 | 6.1 | 6.5 | 2.2 | 4.2 | 4.7 | 8.4
36 | CN(C)c1cc2c(cc1Sc1nc3c(N)nccc3n1CCNCC(C)(C)C)OCO2 [CUDC-305] | 13.8 | 9.7 | 13 | 5.3 | 8.6 | 10.7 | 16.1 | 7.2
37 | COc1cc(Br)c(Nc2nc(-c3c(C)nc4ncccn34)cs2)c(Br)c1 [PTC-209] | 13.7 | 5.1 | 11.2 | 5 | 4.6 | 4.2 | 12.4 | 7.6
38 | Cc1cccc(-c2[nH]c(CNc3ccccc3F)nc2-c2ccc3ncnn3c2)n1 [TEW-7197] | 0 | 0.7 | 0 | 0 | 0 | 0 | 0 | 0
39 | COc1cccc2c1C(=O)c1c(O)c3c(c(O)c1C2=O)C[C@@](O)(C(=O)CO)C[C@@H]3O[C@H]1C[C@H](N)[C@H](O)[C@H](C)O1 [Doxorubicin] | 4.2 | 6.7 | 6.8 | 7.8 | 7.8 | 4.9 | 15.1 | 4.8
40 | C[C@H]1C[C@@H](n2c(Nc3ccc(OC(F)(F)F)cc3)nc3cc(CCC(=O)O)ccc32)CC(C)(C)C1 | 0 | 0 | 4.5 | 0 | 0 | 0 | 0 | 0
41 | O[C@H]1CC[C@H](Nc2ncc3nc(Nc4c(F)cc(F)cc4F)n([C@H]4CCOC4)c3n2)CC1 [Tanzisertib] | 0 | 0 | 0.1 | 0 | 0.8 | 0 | 0.1 | 0
42 | CC1=C(/C=C/C(C)=C/C=C/C(C)=C/C(=O)O)C(C)(C)CCC1 [Tretinoin] | 5.7 | 0 | 0.7 | 0.8 | 0 | 0 | 0 | 0
43 | O=C(c1ccc(OCCN2CCCCC2)cc1)c1c(-c2ccc(O)cc2)sc2cc(O)ccc12 [Raloxifene] | 0 | 2.1 | 4.7 | 1.8 | 1.3 | 0 | 2 | 1.9
